From DBAASP
In brackets after ≈: the same amount, converted by molar mass. Values belong to the molecule of their own block, whether it stands above or below them.

Experiments:
Assay in all cases: ≥ marks a high value that may be exact or a test limit, other limits are often not marked, values filed in µg/mL are converted to µM
Escherichia coli JM109 = tested on: Escherichia coli JM109
Pseudomonas aeruginosa = tested on: Pseudomonas aeruginosa
[1] = tested on: Staphylococcus aureus ATCC 6538P
Staphylococcus aureus = tested on: Staphylococcus aureus
[2] = tested on: Bacillus subtilis ATCC 6633
Candida albicans = tested on: Candida albicans
[3] = tested on: Escherichia coli NIHJ JC-2
[4] = tested on: Staphylococcus aureus FDA 209P JC-1
[5] = tested on: Candida albicans ATCC 36232
[6] = tested on: Corynebacterium diphtheriae ATCC 8024
[7] = tested on: Escherichia coli ATCC 2592
[8] = tested on: Micrococcus luteus ATCC 9341
[9] = tested on: Pseudomonas aeruginosa ATCC 9027
[10] = tested on: Shigella flexneri ATCC 203
[11] = tested on: Staphylococcus aureus ATCC 6538
[12] = tested on: Staphylococcus epidermidis ATCC 12228
[13] = tested on: Bacillus cereus ATCC 11778
[14] = tested on: Enterococcus faecalis ATCC 29212
[15] = tested on: Escherichia coli ATCC 25922
[16] = tested on: Escherichia coli ATCC 35218
Escherichia coli O157 = tested on: Escherichia coli O157
[17] = tested on: Salmonella enterica subsp. arizonae ATCC 13314
[18] = tested on: Streptococcus pyogenes ATCC 19615

- MIC (Escherichia coli JM109): 2.6 µM (≈ 3 µg/mL)
- MIC (Pseudomonas aeruginosa): 3.46 µM (≈ 4 µg/mL)
- MIC [1]: 1.73 µM (≈ 2 µg/mL)
- MIC (Staphylococcus aureus): 27.7 µM (≈ 32 µg/mL)
Structure (SMILES): CC[C@H](C)[C@H](NC(=O)[C@H](C)NC(=O)[C@H](CC(C)C)NC(=O)[C@H](Cc1c[nH]c2ccccc12)NC(=O)[C@H](CC(C)C)NC(=O)[C@H](C)N)C(=O)N[C@@H](CCCN=C(N)N)C(=O)N[C@@H](CCCN=C(N)N)C(=O)N[C@@H](CCCN=C(N)N)C(N)=O [ALWLAIRRR]

- MIC [2]: 0.615 µM (≈ 2 µg/mL)
- MIC (Candida albicans): > 40 µM
- MIC [3]: 1.23 µM (≈ 4 µg/mL)
- MIC [4]: 2.46 µM (≈ 8 µg/mL)
Structure (SMILES): CC(C)C[C@H](NC(=O)CN)C(=O)N[C@@H](CC(C)C)C(=O)N[C@@H](CC(=O)O)C(=O)N[C@@H](CO)C(=O)N[C@@H](CC(C)C)C(=O)N[C@@H](CCCCN)C(=O)NCC(=O)N[C@@H](Cc1ccccc1)C(=O)N[C@@H](C)C(=O)N[C@@H](C)C(=O)N[C@H](C(=O)N[C@@H](C)C(=O)NCC(=O)N[C@@H](CCCCN)C(=O)NCC(=O)N[C@H](C(=O)N[C@@H](CC(C)C)C(=O)N[C@@H](CCC(N)=O)C(=O)N[C@@H](CO)C(=O)N[C@@H](CC(C)C)C(=O)N[C@@H](CC(C)C)C(=O)N[C@@H](CO)C(=O)N[C@H](C(=O)N[C@@H](C)C(=O)N[C@@H](CO)C(=O)N[C@H]1CSSC[C@@H](C(=O)O)NC(=O)[C@H]([C@@H](C)O)NC(=O)[C@H](CCCCN)NC(=O)[C@H](C)NC(=O)[C@H](CC(C)C)NC(=O)[C@H](CCCCN)NC1=O)[C@@H](C)O)C(C)C)[C@@H](C)O [GLLDSLKGFAATAGKGVLQSLLSTASCKLAKTC]

- MIC [2]: 13.2 µM (≈ 15 µg/mL)
- MIC [5]: 13.2 µM (≈ 15 µg/mL)
- MIC [6]: 6.59 µM (≈ 7.49 µg/mL)
- MIC [7]: 6.59 µM (≈ 7.49 µg/mL)
- MIC [8]: 11 µM (≈ 12.5 µg/mL)
- MIC [9]: 44 µM (≈ 50 µg/mL)
- MIC [10]: 26.4 µM (≈ 30 µg/mL)
- MIC [11]: 26.4 µM (≈ 30 µg/mL)
- MIC (Staphylococcus aureus): > 87.9 µM
- MIC [12]: 13.2 µM (≈ 15 µg/mL)
Structure (SMILES): CC(C)[C@H](NC(=O)[C@H](CS)NC(=O)[C@@H](NC(=O)[C@H](CCCN=C(N)N)NC(=O)[C@H](CCCCN)NC(=O)CNC(=O)[C@H](CC(N)=O)NC(=O)[C@@H](N)CS)C(C)C)C(=O)N[C@@H](CS)C(=O)N[C@@H](CCCN=C(N)N)C(N)=O [CNGKRVCVCR]

- MIC [13]: ≥ 75 µM
- MIC [14]: 150 µM (≈ 502 µg/mL)
- MIC [15]: 150 µM (≈ 502 µg/mL)
- MIC [16]: ≥ 150 µM
- MIC (Escherichia coli O157): ≥ 150 µM
- MIC [8]: 19 µM (≈ 63.6 µg/mL)
- MIC [9]: > 150 µM
- MIC [17]: ≥ 150 µM
- MIC [12]: 150 µM (≈ 502 µg/mL)
- MIC [18]: ≥ 38 µM
Structure (SMILES): CC(C)C[C@H](NC(=O)[C@H](CCC(N)=O)NC(=O)[C@H](Cc1ccc(O)cc1)NC(=O)[C@H](CCCN=C(N)N)NC(=O)CNC(=O)[C@H](C)NC(=O)[C@H](C)NC(=O)[C@@H](NC(=O)[C@H](CO)NC(=O)[C@H](Cc1ccc(O)cc1)NC(=O)[C@@H](NC(=O)[C@H](CCCCN)NC(=O)[C@H](Cc1ccc(O)cc1)NC(=O)[C@H](CCCN=C(N)N)NC(=O)[C@@H]1CCCN1C(=O)[C@H](CC(C)C)NC(=O)[C@H](Cc1ccc(O)cc1)NC(=O)[C@@H](NC(=O)[C@H](CCCCN)NC(=O)[C@H](CC(C)C)NC(=O)[C@H](CCCN=C(N)N)NC(=O)[C@@H]1CCCN1)C(C)C)C(C)C)[C@@H](C)O)C(=O)N[C@@H](CC(C)C)C(=O)N[C@@H](CO)C(=O)N[C@@H](CCCN=C(N)N)C(=O)N[C@@H](Cc1ccc(O)cc1)C(=O)N[C@@H](Cc1c[nH]c2ccccc12)C(N)=O [PRLKVYLPRYKVYSTAAGRYQLLSRYW]
